Measurements from US20260199484A1, “PROTAC DEGRADERS OF MLLT1 AND/OR MLLT3” (DARK BLUE THERAPEUTICS LTD, priority 2024, published 2026).

Columns and labels:
MLLT1 = molecular target: T1, MLLT1 (Mus musculus, UniProt F6UGX7); test: MLLT1 degradation assay in NIH/3T3 cells (JESS, 5 h); format: cell-based
T1 construct: endogenous in cells; host or cells: NIH/3T3 (ATCC CRL-1658)
T1 sequence (F6UGX7 1-547): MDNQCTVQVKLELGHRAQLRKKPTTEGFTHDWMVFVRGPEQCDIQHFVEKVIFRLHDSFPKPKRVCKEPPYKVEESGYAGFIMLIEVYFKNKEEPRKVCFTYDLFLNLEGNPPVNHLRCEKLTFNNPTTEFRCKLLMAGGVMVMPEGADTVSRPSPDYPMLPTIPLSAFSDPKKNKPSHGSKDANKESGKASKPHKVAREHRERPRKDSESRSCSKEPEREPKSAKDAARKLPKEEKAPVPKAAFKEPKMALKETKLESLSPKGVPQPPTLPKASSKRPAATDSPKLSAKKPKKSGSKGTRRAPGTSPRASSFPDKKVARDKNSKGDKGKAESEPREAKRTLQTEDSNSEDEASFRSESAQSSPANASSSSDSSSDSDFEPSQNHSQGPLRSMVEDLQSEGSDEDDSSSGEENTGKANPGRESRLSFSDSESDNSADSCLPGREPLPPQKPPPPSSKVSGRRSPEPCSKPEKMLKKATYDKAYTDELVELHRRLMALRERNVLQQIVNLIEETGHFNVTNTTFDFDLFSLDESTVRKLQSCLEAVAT
Description: MLLT1 degradation efficacy of compounds was tested in an automated chemiluminescent detection system (JESS, Cat #004-650). NIH/3T3 (#CRL-1658, ATCC) were seeded at a density of 0.5 million cells/well in a cell culture treated 6-well cell culture plate in 2 mL of complete medium (DMEM+10% FBS+1× Penicillin-Streptomycin) and incubated at 37° C., 5% CO2. The next day, 10 mM DMSO stocks were prepared, and cells were treated with eight concentrations of test compound, starting from 100 nM, 5-fold dilution, at a final DMSO concentration of 0.1% and incubated for 5 h at 37° C., 5% CO2. Post incubation, cells were washed with HBSS and lysed in 70 μL of RIPA buffer supplemented with Protease inhibitors (sc-24948; Santa Cruz). Protein estimation was done using BCA protein assay kit (23228; Pierce). […] Post run, data was analysed using “Compass for SW” software for chemiluminescent detection. […]
MLLT3 degradation efficacy of compounds was tested in an automated chemiluminescent detection system (JESS, Cat #004-650). […] Post run, data was analysed using “Compass for SW” software for chemiluminescent detection. […]

MLLT3 = molecular target: T2, MLLT3 (Mus musculus, UniProt A2AM29); test: MLLT3 degradation assay in NIH/3T3 cells (JESS, 5 h); format: cell-based
T2 construct: endogenous in cells; host or cells: NIH/3T3 (ATCC CRL-1658)
T2 sequence (A2AM29 1-569): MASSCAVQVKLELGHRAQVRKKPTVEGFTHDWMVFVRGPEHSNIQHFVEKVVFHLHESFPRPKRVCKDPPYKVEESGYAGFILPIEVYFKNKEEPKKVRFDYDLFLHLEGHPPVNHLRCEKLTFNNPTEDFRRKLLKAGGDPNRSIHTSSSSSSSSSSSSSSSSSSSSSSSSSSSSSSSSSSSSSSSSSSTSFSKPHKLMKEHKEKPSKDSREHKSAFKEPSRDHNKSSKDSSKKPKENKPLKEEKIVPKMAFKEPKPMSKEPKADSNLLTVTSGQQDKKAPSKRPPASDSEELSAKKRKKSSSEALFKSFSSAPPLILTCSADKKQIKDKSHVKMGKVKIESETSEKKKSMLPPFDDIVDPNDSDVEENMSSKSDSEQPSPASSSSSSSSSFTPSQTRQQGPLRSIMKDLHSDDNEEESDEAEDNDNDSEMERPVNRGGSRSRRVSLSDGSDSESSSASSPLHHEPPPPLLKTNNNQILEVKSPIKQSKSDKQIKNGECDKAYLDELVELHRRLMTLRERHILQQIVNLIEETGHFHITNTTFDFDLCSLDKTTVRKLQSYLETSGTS
Description: MLLT3 degradation efficacy of compounds was tested in an automated chemiluminescent detection system (JESS, Cat #004-650). NIH/3T3 (#CRL-1658, ATCC) were seeded at a density of 0.5 million cells/well in a cell culture treated 6-well cell culture plate in 2 mL of complete medium (DMEM+10% FBS+1× Penicillin-Streptomycin) and incubated at 37° C., 5% CO2. The next day, 10 mM DMSO stocks were prepared, and cells were treated with eight concentrations of test compounds, starting from 100 nM, 5-fold dilution, at a final DMSO concentration of 0.1% and incubated for 5 h at 37° C., 5% CO2. Post incubation, cells were washed with HBSS and lysed in 70 μL of RIPA buffer supplemented with Protease inhibitors (sc-24948; Santa Cruz). Later, protein estimation was done using BCA protein assay kit (23228; Pierce). 4 gg protein lysate (4 μL of 1 μg/μL lysate) was loaded into each well of the JESS cartridge (SM-W004; Bio-techne) and the JESS run was performed using 1:200 dilution of anti-mouse MLLT3 antibody (#47577; CST) and 1:800 dilution of anti-human GAPDH antibody (2118; Cell signaling technology) with anti-rabbit secondary detection module (DM-001; Bio-Techne). Post run, data was analysed using “Compass for SW” software for chemiluminescent detection. Peak fit was done using “dropped lines” method. […]

With `Cc1nn(CCCCCCCC#Cc2cccc3c2CN(C2CCC(=O)NC2=O)C3=O)c2cc(C(=O)Nc3cc4[nH]c([C@H]5CCCN5C)cc4cn3)ccc12` (mixture of isomers) [Example 1, 1-(9-(2-(2,6-dioxopiperidin-3-yl)-1-oxoisoindolin-4-yl)non-8-yn-1-yl)-3-methyl-N-(2-((R)-1-methylpyrrolidin-2-yl)-1H-pyrrolo[3,2-c]pyridin-6-yl)-1H-indazole-6-carboxamide] the Dmax (MLLT1; NIH3T3, read-out: MLLT1 Dmax in NIH/3T3 cells) was 90%, the DC50 (MLLT1; NIH/3T3 cells, 5 h) was 1.4 nM and the DC50 (MLLT3) was 1.6 nM. The Dmax (MLLT3; NIH3T3, maximum % degradation observed) was 85%.
